Results on 2 compounds are retold here after ChEMBL document CHEMBL5241130, “Integrating a phenotypic screening with a structural simplification strategy to identify 4-phenoxy-quinoline derivatives to potently disrupt the mitotic localization of Aurora kinase B” (Bioorg Med Chem, 2023).

Holding throughout (type): cell-based
The target in assay [1] is T1, Aurora kinase A (Homo sapiens) (UniProt O14965).
T1 sequence (whole entry): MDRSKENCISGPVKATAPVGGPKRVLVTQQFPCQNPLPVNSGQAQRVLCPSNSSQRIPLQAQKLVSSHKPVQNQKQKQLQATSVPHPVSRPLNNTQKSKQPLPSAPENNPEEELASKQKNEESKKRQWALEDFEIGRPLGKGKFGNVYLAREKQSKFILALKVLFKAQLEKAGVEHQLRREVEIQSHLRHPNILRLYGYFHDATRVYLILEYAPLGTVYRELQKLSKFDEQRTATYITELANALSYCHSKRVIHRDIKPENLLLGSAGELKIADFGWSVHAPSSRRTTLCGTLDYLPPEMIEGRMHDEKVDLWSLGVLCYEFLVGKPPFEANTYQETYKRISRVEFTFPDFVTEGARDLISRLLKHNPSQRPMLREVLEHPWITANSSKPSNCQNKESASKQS
As to the kind of experiment: Inhibition of AURKA in human RPE-MYC H2B-GFP cells assessed as inhibition of autophosphorylation of AURKA at Thr288 residue by measuring residual enzyme activity at 0.078 uM measured after 6 hrs by immunofluorescence staining analysis (reference value: 100 +/-1%).

The target of assay [2] is T1, Aurora kinase A (Homo sapiens). The assay can be described thus: Inhibition of AURKA in human RPE-MYC H2B-GFP cells assessed as inhibition of autophosphorylation of AURKA at Thr288 residue by measuring residual enzyme activity at 0.156 uM measured after 6 hrs by immunofluorescence staining analysis (reference value: 100 +/-1%).
Assay [3] shares this target. The assay can be described thus: Inhibition of AURKA in human RPE-MYC H2B-GFP cells assessed as inhibition of autophosphorylation of AURKA at Thr288 residue by measuring residual enzyme activity at 0.312 uM measured after 6 hrs by immunofluorescence staining analysis (reference value: 100 +/-1%).
Assay [4] deals with Aurora kinase B (Homo sapiens) (UniProt Q96GD4). The assay can be described thus: Inhibition of AURKB in human RPE-MYC H2B-GFP cells assessed as inhibition of histone H3 phosphorylation at Ser10 residue by measuring residual enzyme activity at 0.078 uM measured after 6 hrs by immunofluorescence staining analysis (reference value: 100 +/-9%).
Assay [5] shares this target. The assay can be described thus: Inhibition of AURKB in human RPE-MYC H2B-GFP cells assessed as inhibition of histone H3 phosphorylation at Ser10 residue by measuring residual enzyme activity at 0.156 uM measured after 6 hrs by immunofluorescence staining analysis (reference value: 100 +/-9%).
Assay [6] has the same target. The assay can be described thus: Inhibition of AURKB in human RPE-MYC H2B-GFP cells assessed as inhibition of histone H3 phosphorylation at Ser10 residue by measuring residual enzyme activity at 0.312 uM measured after 6 hrs by immunofluorescence staining analysis (reference value: 100 +/-9%).
The target is the same in assay [7]. The assay can be described thus: Disruption of mitotic localization of AURKB in human RPE-MYC H2B-GFP cells assessed as proportion of polyploid cells in fully attached cell population at 0.078 uM measured after 48 hrs by fluorescence high content cell imaging analysis (Rvb <1%).
For assay [8] the target is unchanged. The assay can be described thus: Disruption of mitotic localization of AURKB in human RPE-MYC H2B-GFP cells assessed as proportion of polyploid cells in fully attached cell population at 0.156 uM measured after 48 hrs by fluorescence high content cell imaging analysis (Rvb <1%).
Assay [9] shares this target. As to the kind of experiment: Disruption of mitotic localization of AURKB in human RPE-MYC H2B-GFP cells assessed as proportion of polyploid cells in fully attached cell population at 0.312 uM measured after 48 hrs by fluorescence high content cell imaging analysis (Rvb <1%).
The target is the same in assay [10]. The assay can be described thus: Disruption of mitotic localization of AURKB in human RPE-MYC H2B-GFP cells assessed as mitotic index at 0.078 uM measured after 6 hrs by fluorescence high content cell imaging analysis (reference value: 4.7+/-0.4%).
Assay [11] shares this target. As to the kind of experiment: Disruption of mitotic localization of AURKB in human RPE-MYC H2B-GFP cells assessed as mitotic index at 0.156 uM measured after 6 hrs by fluorescence high content cell imaging analysis (reference value: 4.7+/-0.4%).
Assay [12] shares this target. As to the kind of experiment: Disruption of mitotic localization of AURKB in human RPE-MYC H2B-GFP cells assessed as mitotic index at 0.312 uM measured after 6 hrs by fluorescence high content cell imaging analysis (reference value: 4.7+/-0.4%).
Assay [13] has as its target T1, Aurora kinase A (Homo sapiens). As to the kind of experiment: Inhibition of AURKA in human RPE-MYC H2B-GFP cells assessed as inhibition of autophosphorylation of AURKA at Thr288 residue by measuring residual enzyme activity at 10 uM measured after 6 hrs by immunofluorescence staining analysis (reference value: 100 +/-1%).
Assay [14] shares this target. As to the kind of experiment: Inhibition of AURKA in human RPE-MYC H2B-GFP cells assessed as inhibition of autophosphorylation of AURKA at Thr288 residue by measuring residual enzyme activity at 20 uM measured after 6 hrs by immunofluorescence staining analysis (reference value: 100 +/-1%).
For assay [15] the target is unchanged. The assay can be described thus: Inhibition of AURKA in human RPE-MYC H2B-GFP cells assessed as inhibition of autophosphorylation of AURKA at Thr288 residue by measuring residual enzyme activity at 40 uM measured after 6 hrs by immunofluorescence staining analysis (reference value: 100+/-1%).
Assay [16] deals with Aurora kinase B (Homo sapiens) (UniProt Q96GD4). As to the kind of experiment: Inhibition of AURKB in human RPE-MYC H2B-GFP cells assessed as inhibition of histone H3 phosphorylation at Ser10 residue by measuring residual enzyme activity at 10 uM measured after 6 hrs by immunofluorescence staining analysis (reference value: 100 +/-9%).
For assay [17] the target is unchanged. As to the kind of experiment: Inhibition of AURKB in human RPE-MYC H2B-GFP cells assessed as inhibition of histone H3 phosphorylation at Ser10 residue by measuring residual enzyme activity at 20 uM measured after 6 hrs by immunofluorescence staining analysis (reference value: 100 +/-9%).
Assay [18] shares this target. The assay can be described thus: Inhibition of AURKB in human RPE-MYC H2B-GFP cells assessed as inhibition of histone H3 phosphorylation at Ser10 residue by measuring residual enzyme activity at 40 uM measured after 6 hrs by immunofluorescence staining analysis (reference value: 100 +/-9%).
The target is the same in assay [19]. The assay can be described thus: Disruption of mitotic localization of AURKB in human RPE-MYC H2B-GFP cells assessed as proportion of polyploid cells in fully attached cell population at 10 uM measured after 72 hrs by fluorescence high content cell imaging analysis (Rvb <1%).
Assay [20] shares this target. The assay can be described thus: Disruption of mitotic localization of AURKB in human RPE-MYC H2B-GFP cells assessed as proportion of polyploid cells in fully attached cell population at 20 uM measured after 72 hrs by fluorescence high content cell imaging analysis (Rvb <1%).
The target is the same in assay [21]. The assay can be described thus: Disruption of mitotic localization of AURKB in human RPE-MYC H2B-GFP cells assessed as proportion of polyploid cells in fully attached cell population at 40 uM measured after 72 hrs by fluorescence high content cell imaging analysis (Rvb <1%).
The target is the same in assay [22]. The assay can be described thus: Disruption of mitotic localization of AURKB in human RPE-MYC H2B-GFP cells assessed as mitotic index at 10 uM measured after 6 hrs by fluorescence high content cell imaging analysis (reference value: 4.7+/-0.4%).
Assay [23] shares this target. The assay can be described thus: Disruption of mitotic localization of AURKB in human RPE-MYC H2B-GFP cells assessed as mitotic index at 20 uM measured after 6 hrs by fluorescence high content cell imaging analysis (reference value: 4.7+/-0.4%).
For assay [24] the target is unchanged. As to the kind of experiment: Disruption of mitotic localization of AURKB in human RPE-MYC H2B-GFP cells assessed as mitotic index at 40 uM measured after 6 hrs by fluorescence high content cell imaging analysis (reference value: 4.7+/-0.4%).
For assay [25] the target is unchanged. As to the kind of experiment: Disruption of mitotic localization of AURKB in human RPE-MYC H2B-GFP cells assessed as induction of mitotic arrest measured after 24 hrs by fluorescence high content cell imaging analysis.
For assay [26] the target is unchanged. The assay can be described thus: Disruption of mitotic localization of AURKB in human RPE-MYC H2B-GFP cells assessed as induction of polyploidy by fluorescence high content cell imaging analysis.

Chain of Aurora kinase B (Homo sapiens) (Q96GD4 whole entry): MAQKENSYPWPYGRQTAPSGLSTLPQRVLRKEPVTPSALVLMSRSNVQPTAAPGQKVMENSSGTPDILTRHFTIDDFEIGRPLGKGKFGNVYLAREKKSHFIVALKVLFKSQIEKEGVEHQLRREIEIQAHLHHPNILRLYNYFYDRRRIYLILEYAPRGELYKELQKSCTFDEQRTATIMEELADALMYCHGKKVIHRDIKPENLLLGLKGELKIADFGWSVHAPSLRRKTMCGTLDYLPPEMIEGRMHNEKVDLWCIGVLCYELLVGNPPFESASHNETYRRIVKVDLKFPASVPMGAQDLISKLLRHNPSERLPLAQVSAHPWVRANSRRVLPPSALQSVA

Regarding `Cc1csc(-c2nnc(Nc3ccc(Oc4ccnc5ccccc45)cc3)c3ccccc23)c1`, the Activity in assay [1] worked out at 100%; in assay [2], 100%; in assay [3] it was 100%; in assay [4], 98%; in assay [5], 21.4%; in assay [6], 0%. For the same compound, the Activity came to 100% in assay [7]; 100% in assay [8]; 100% in assay [9]; 11% in assay [10]; 9.8% in [11]; 10.1% in [12].
For the compound `Nc1ccc(Oc2ccnc3ccccc23)cc1`, the Activity in [13] is 106%; in assay [14], 109%; in assay [15], 115%; in assay [16], 104%; in assay [17], 102%; in [18] it was 105%. For the same compound, the Activity in assay [19] was 100%; in [20], 100%; in [21], 100%; in [22], 15.6%; in [23], 16.2%; in assay [24], 15.6%. The MEC in [25] and in assay [26] was 10 µM each time.
